Test [1] deals with Recombinant Human NF-kappaB-Inducing Kinase (NIK/MAP3K14) (Homo sapiens, UniProt Q99558). Nature of the test: Inhibition of auto-phosphorylation of recombinant human NIK/MAP3K14 activity (AlphaScreen). The settings on record: 5 μM ATP, 1 nM NIK, average if tested more than once. The test is classed as biochemical. The gist of the method:
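AlphaScreen detection of phospho-Ser176/180 after 1 nM GST-NIK auto-phosphorylates for 2 h at 25 °C with 5 μM ATP (50 mM Tris pH 7.5, 0.7% DMSO). IC50s come from sigmoidal curves of % inhibition against log dose, using enzyme-free, ATP-free low controls and full-activity high controls.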

Test [2] has as its system p-IKKa levels in L363 (NIK translocated multiple myeloma) cells. Nature of the test: Effect of compounds on p-IKKa levels in L363 (NIK translocated multiple myeloma) cells (AlphaLISA SureFire Ultra p-IKKa Ser176/180). Format: cell-based, human. Conditions: Homo sapiens, L-363, p-IKKa levels in L363 cells; average if tested more than once; read-out: Assay 2 IC50. The gist of the method: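 Phospho-IKKa (Ser176/180) in lysates quantified by AlphaLISA after 6 h compound exposure, 11-point threefold dilutions, 0.3% DMSO. L363 cells were pre-stimulated overnight and assayed with 250 ng/ml BAFF and 10 μM MG132; % inhibition fitted sigmoidally for IC50, duplicate curves.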
(In general: In Alpha technology, singlet oxygen from a donor bead excites a nearby acceptor bead.)

Structures are written as SMILES. A value given as a limit tells only on which side of the number the result lay.

Our source for the IC50 values is patent US20250304567A1, “PYRROLIDIONE DERIVATIVES AS INHIBITORS OF NF KAPPA B INDUCING KINASE” (priority 2022, published 2025).

Sequence of Recombinant Human NF-kappaB-Inducing Kinase (NIK/MAP3K14) (Q99558 whole entry): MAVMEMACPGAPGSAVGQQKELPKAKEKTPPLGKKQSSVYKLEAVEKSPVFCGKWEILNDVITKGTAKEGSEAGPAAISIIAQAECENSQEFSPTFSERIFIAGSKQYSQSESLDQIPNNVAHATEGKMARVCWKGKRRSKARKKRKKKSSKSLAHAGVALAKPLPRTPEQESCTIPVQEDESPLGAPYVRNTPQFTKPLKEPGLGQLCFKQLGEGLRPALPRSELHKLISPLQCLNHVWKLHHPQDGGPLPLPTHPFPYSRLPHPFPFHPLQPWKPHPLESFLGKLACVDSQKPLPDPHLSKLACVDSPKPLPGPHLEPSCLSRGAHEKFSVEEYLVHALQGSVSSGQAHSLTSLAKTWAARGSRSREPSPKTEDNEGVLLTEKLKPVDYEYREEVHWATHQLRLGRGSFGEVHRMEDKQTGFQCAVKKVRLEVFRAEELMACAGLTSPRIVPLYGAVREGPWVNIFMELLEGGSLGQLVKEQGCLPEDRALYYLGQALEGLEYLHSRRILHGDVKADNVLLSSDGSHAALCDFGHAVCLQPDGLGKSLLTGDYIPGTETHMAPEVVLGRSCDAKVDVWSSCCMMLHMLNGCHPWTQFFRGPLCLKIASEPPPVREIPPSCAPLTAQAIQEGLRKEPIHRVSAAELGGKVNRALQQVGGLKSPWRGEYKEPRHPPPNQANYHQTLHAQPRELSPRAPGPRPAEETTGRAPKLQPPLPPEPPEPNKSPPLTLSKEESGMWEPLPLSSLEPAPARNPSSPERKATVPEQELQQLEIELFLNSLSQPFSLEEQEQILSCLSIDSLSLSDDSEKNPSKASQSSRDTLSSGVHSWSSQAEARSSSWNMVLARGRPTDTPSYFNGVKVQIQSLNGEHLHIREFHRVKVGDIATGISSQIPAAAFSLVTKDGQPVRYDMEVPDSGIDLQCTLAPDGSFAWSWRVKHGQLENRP

The IC50 is the concentration needed to halve the response being measured. With `CCn1ccc(Nc2nccc(-c3csc(-c4cccc([C@]5(O)CCN(C)C5=O)c4)n3)n2)n1` [Example 76, (R)-3-(3-(4-(2-((1-ethyl-1H-pyrazol-3-yl)amino)pyrimidin-4-yl)thiazol-2-yl)phenyl)-3-hydroxy-1-methylpyrrolidin-2-one], the IC50 was below 100 nM in test [1] and 100 to 500 nM in test [2].
The corresponding values for `CN1CC[C@@](O)(c2cccc(-c3nc(-c4ccnc(Nc5ccccn5)n4)cs3)c2)C1=O` [Example 77, (R)-3-hydroxy-1-methyl-3-(3-(4-(2-(pyridin-2-ylamino)pyrimidin-4-yl)thiazol-2-yl)phenyl)pyrrolidin-2-one] are below 100 nM and above 501 nM.
The corresponding values for `CCOc1cn(C)nc1Nc1nccc(-c2csc(-c3cccc([C@]4(O)CCN(C)C4=O)c3)n2)n1` [Example 78, (R)-3-(3-(4-(2-((4-ethoxy-1-methyl-1H-pyrazol-3-yl)amino)pyrimidin-4-yl)thiazol-2-yl)phenyl)-3-hydroxy-1-methylpyrrolidin-2-one] are below 100 nM and below 100 nM.
Regarding `CN1CC[C@@](O)(c2cccc(-c3csc(-c4ccnc(Nc5cnn(C)c5)n4)n3)c2)C1=O` [Example 79, (R)-3-hydroxy-1-methyl-3-(3-(2-(2-((1-methyl-1H-pyrazol-4-yl)amino)pyrimidin-4-yl)thiazol-4-yl)phenyl)pyrrolidin-2-one], the IC50 in test [1] was below 100 nM; in test [2], above 501 nM.
Regarding `CN1CC[C@@](O)(c2cccc(-c3csc(-c4ccnc(Nc5cnn(CC(F)F)c5)n4)n3)c2)C1=O` [Example 80, (R)-3-(3-(2-(2-((1-(2,2-difluoroethyl)-1H-pyrazol-4-yl)amino)pyrimidin-4-yl)thiazol-4-yl)phenyl)-3-hydroxy-1-methylpyrrolidin-2-one], the IC50 in test [1] and in test [2] was below 100 nM in each case.
For the compound `Cc1cc(Nc2nccc(-c3nc(-c4cccc([C@]5(O)CCN(C)C5=O)c4)cs3)n2)n(C)n1` [Example 81, (R)-3-(3-(2-(2-((1,3-dimethyl-1H-pyrazol-5-yl)amino)pyrimidin-4-yl)thiazol-4-yl)phenyl)-3-hydroxy-1-methylpyrrolidin-2-one], the IC50 is 100 to 500 nM in test [1] and above 501 nM in test [2].
The corresponding values for `CN1CC[C@@](O)(c2cccc(-c3csc(-c4ccnc(Nc5cnn6ccccc56)n4)n3)c2)C1=O` [Example 82, (R)-3-hydroxy-1-methyl-3-(3-(2-(2-(pyrazolo[1,5-a]pyridin-3-ylamino)pyrimidin-4-yl)thiazol-4-yl)phenyl)pyrrolidin-2-one] are below 100 nM and below 100 nM.
Turning to `CN1CC[C@@](O)(c2cccc(-c3csc(-c4ccnc(Nc5cnn(CCO)c5)n4)n3)c2)C1=O` [Example 83, (R)-3-hydroxy-3-(3-(2-(2-((1-(2-hydroxyethyl)-1H-pyrazol-4-yl)amino)pyrimidin-4-yl)thiazol-4-yl)phenyl)-1-methylpyrrolidin-2-one], the values for the IC50 in test [1] and in test [2] were below 100 nM and above 501 nM, respectively.
In the case of `COc1cc(Nc2nccc(-c3nc(-c4cccc([C@]5(O)CCN(C)C5=O)c4)cs3)n2)n(C)n1` [Example 84, (R)-3-hydroxy-3-(3-(2-(2-((3-methoxy-1-methyl-1H-pyrazol-5-yl)amino)pyrimidin-4-yl)thiazol-4-yl)phenyl)-1-methylpyrrolidin-2-one], the IC50 in test [1] and in test [2] was above 501 nM each time.
In the case of `CN1CC[C@@](O)(c2cccc(-c3csc(-c4ccnc(Nc5cnn6cccnc56)n4)n3)c2)C1=O` [Example 85, (R)-3-hydroxy-1-methyl-3-(3-(2-(2-(pyrazolo[1,5-a]pyrimidin-3-ylamino)pyrimidin-4-yl)thiazol-4-yl)phenyl)pyrrolidin-2-one], the IC50 in test [1] and in test [2] was below 100 nM throughout.
Turning to `COCCn1cc(Nc2nccc(-c3nc(-c4cccc([C@]5(O)CCN(C)C5=O)c4)cs3)n2)cn1` [Example 86, (R)-3-hydroxy-3-(3-(2-(2-((1-(2-methoxyethyl)-1H-pyrazol-4-yl)amino)pyrimidin-4-yl)thiazol-4-yl)phenyl)-1-methylpyrrolidin-2-one], the IC50 in test [1] and in test [2] was below 100 nM in each case.
Take `CN1CCC(n2cc(Nc3nccc(-c4nc(-c5cccc([C@]6(O)CCN(C)C6=O)c5)cs4)n3)cn2)CC1` [Example 87, (R)-3-hydroxy-1-methyl-3-(3-(2-(2-((1-(1-methylpiperidin-4-yl)-1H-pyrazol-4-yl)amino)pyrimidin-4-yl)thiazol-4-yl)phenyl)pyrrolidin-2-one]: the values for the IC50 in test [1] and in test [2] were below 100 nM and 100 to 500 nM, respectively.
On to `CN1CC[C@@](O)(c2cccc(-c3csc(-c4ccnc(Nc5cnn(C6CCS(=O)(=O)CC6)c5)n4)n3)c2)C1=O` [Example 88, (R)-3-(3-(2-(2-((1-(1,1-dioxidotetrahydro-2H-thiopyran-4-yl)-1H-pyrazol-4-yl)amino)pyrimidin-4-yl)thiazol-4-yl)phenyl)-3-hydroxy-1-methylpyrrolidin-2-one], for which the IC50 in test [1] is below 100 nM; in test [2], 100 to 500 nM.
Consider `CN1CC[C@@](O)(c2cccc(-c3csc(-c4ccnc(Nc5cnn(CC(C)(C)O)c5)n4)n3)c2)C1=O` [Example 89, (R)-3-hydroxy-3-(3-(2-(2-((1-(2-hydroxy-2-methylpropyl)-1H-pyrazol-4-yl)amino)pyrimidin-4-yl)thiazol-4-yl)phenyl)-1-methylpyrrolidin-2-one], for which the IC50 in test [1] and in test [2] was below 100 nM in each case.
As to `CN1CC[C@@](O)(c2cccc(-c3ccn(-c4ccnc(Nc5cnn(C)c5)n4)n3)c2)C1=O` [Example 90, (R)-3-hydroxy-1-methyl-3-(3-(1-(2-((1-methyl-1H-pyrazol-4-yl)amino)pyrimidin-4-yl)-1H-pyrazol-3-yl)phenyl)pyrrolidin-2-one], the IC50 in test [1] was below 100 nM; in test [2], 100 to 500 nM.
The corresponding values for `CN1CC[C@@](O)(c2cccc(-c3nc(-c4ccnc(Nc5cn(C)nc5OC5CCCC5)n4)cs3)c2)C1=O` [Example 95, (R)-3-(3-(4-(2-((3-(cyclopentyloxy)-1-methyl-1H-pyrazol-4-yl)amino)pyrimidin-4-yl)thiazol-2-yl)phenyl)-3-hydroxy-1-methylpyrrolidin-2-one] are below 100 nM and 100 to 500 nM.
The corresponding values for `CN1CC[C@@](O)(c2cccc(-c3nc(-c4ccnc(Nc5cn(C)nc5OCC(F)F)n4)cs3)c2)C1=O` [Example 96, (R)-3-(3-(4-(2-((3-(2,2-difluoroethoxy)-1-methyl-1H-pyrazol-4-yl)amino)pyrimidin-4-yl)thiazol-2-yl)phenyl)-3-hydroxy-1-methylpyrrolidin-2-one] are below 100 nM and below 100 nM.
The corresponding values for `CN1CC[C@@](O)(c2cccc(-c3nc(-c4ccnc(Nc5cn(C)nc5OC5CCC5)n4)cs3)c2)C1=O` [Example 97, (R)-3-(3-(4-(2-((3-cyclobutoxy-1-methyl-1H-pyrazol-4-yl)amino)pyrimidin-4-yl)thiazol-2-yl)phenyl)-3-hydroxy-1-methylpyrrolidin-2-one] are below 100 nM and below 100 nM.
As to `CN1CC[C@@](O)(c2cccc(-c3nc(-c4ccnc(Nc5cn(C)nc5OCC(F)(F)F)n4)cs3)c2)C1=O` [Example 98, (R)-3-hydroxy-1-methyl-3-(3-(4-(2-((1-methyl-3-(2,2,2-trifluoroethoxy)-1H-pyrazol-4-yl)amino)pyrimidin-4-yl)thiazol-2-yl)phenyl)pyrrolidin-2-one], the IC50 in test [1] and in test [2] was below 100 nM throughout.
Consider `CN1CC[C@@](O)(c2cccc(-c3nc(-c4ccnc(Nc5cn(C)nc5OC(F)F)n4)cs3)c2)C1=O` [Example 99, (R)-3-(3-(4-(2-((3-(difluoromethoxy)-1-methyl-1H-pyrazol-4-yl)amino)pyrimidin-4-yl)thiazol-2-yl)phenyl)-3-hydroxy-1-methylpyrrolidin-2-one], for which the IC50 in test [1] and in test [2] was below 100 nM throughout.
In the case of `CC(C)Oc1nn(C)cc1Nc1nccc(-c2csc(-c3cccc([C@]4(O)CCN(C)C4=O)c3)n2)n1` [Example 100, (R)-3-hydroxy-3-(3-(4-(2-((3-isopropoxy-1-methyl-1H-pyrazol-4-yl)amino)pyrimidin-4-yl)thiazol-2-yl)phenyl)-1-methylpyrrolidin-2-one], the IC50 in test [1] and in test [2] was below 100 nM each time.
For the compound `COc1nn(CC(F)(F)F)cc1Nc1nccc(-c2csc(-c3cccc([C@]4(O)CCN(C)C4=O)c3)n2)n1` [Example 101, (R)-3-hydroxy-3-(3-(4-(2-((3-methoxy-1-(2,2,2-trifluoroethyl)-1H-pyrazol-4-yl)amino)pyrimidin-4-yl)thiazol-2-yl)phenyl)-1-methylpyrrolidin-2-one], the IC50 in test [1] and in test [2] was below 100 nM each time.
For `CN1CC[C@@](O)(c2cccc(-c3ccn(-c4ccnc(Nc5cn(CC(F)F)nc5OC5CC5)n4)n3)c2)C1=O` [Example 102, (R)-3-(3-(1-(2-((3-cyclopropoxy-1-(2,2-difluoroethyl)-1H-pyrazol-4-yl)amino)pyrimidin-4-yl)-1H-pyrazol-3-yl)phenyl)-3-hydroxy-1-methylpyrrolidin-2-one], the IC50 in test [1] and in test [2] was below 100 nM each time.
For the compound `CCn1cc(Nc2nccc(-c3csc(-c4cccc([C@]5(O)CCN(C)C5=O)c4)n3)n2)c(OC)n1` [Example 103, (R)-3-(3-(4-(2-((1-ethyl-3-methoxy-1H-pyrazol-4-yl)amino)pyrimidin-4-yl)thiazol-2-yl)phenyl)-3-hydroxy-1-methylpyrrolidin-2-one], the figures for the IC50 in test [1] and in test [2] were below 100 nM and 100 to 500 nM, respectively.
